“Also recorded” adds a separate entry of the source.

Results on one substance are retold here after patent publication US20030180295A1, “Angiocidin: a Cys-Ser-Val-Thr-Cys-Gly specific tumor cell adhesion receptor” (Philadelphia Health and Education Corporation, priority 1999, published 2003).

Data set [1] deals with Bovine aortic endothelial cells (BAEC). Put plainly: ALAMAR BLUE cell viability assay. It counts as cell-based. As for the experimental part: (§1) Bovine aortic endothelial cells (BAEC), human umbilical vein endothelial cells (HUVEC), fibroblast cells, A549 human lung carcinoma cells (A549), MDA-MB231 human breast carcinoma cells (MB231), MCF7 human breast carcinoma cells (MCF7) were treated with 37 μg/ml of receptor, or buffer alone, for 24 hours. Viability of the cells was measured using the ALAMAR BLUE™ assay, which measures the capacity of cells to metabolize the ALAMAR BLUE™ dye. The ALAMAR BLUE™ assay (available from Biosource International, Camarillo, Calif.) quantitatively measures the proliferation of cell lines and can establish the relative cytotoxicity of chemical agents. The assay incorporates a fluorometric/colorimetric growth indicator based on detection of metabolic activity. The system incorporates an oxidation-reduction (redox) indicator that both fluoresces and changes color in response to chemical reduction of growth medium resulting from cell growth. This causes the redox indicator to change from its oxidized, non-fluorescent, blue form to its reduced, fluorescent, red form. Data can be collected using either fluorescence-based instrumentation (530-560 nm excitation wavelength and 590 nm emission wavelength) or absorbance-based instrumentation (570 nm and 600 nm).
BAEC and BSM cells were treated with increasing concentrations of angiocidin (0, 0.625, 1.25, 2.5, 5, 15, 26 and 37 μg/ml) for 24 hours. Cell viability was measured using the ALAMAR BLUE Tm assay. […] In contrast, BSM cells are unaffected.
The methods of Example 21 were followed, except BAEC cells were used. Additionally, TSP-1 was added at both 20 μg/ml and 5 μg/ml.
As discussed in Example 19 above, angiocidin was added to BAEC cells. Fragments of angiocidin were added as well. […] GST was used as a negative control. V36-R42, the active site of the antisecretory factor, had no effect, illustrating that angiocidin plays a different role from antisecretory factor.
Bovine aortic endothelial cells (BAEC) were cultured overnight in serum-free media containing either 37 μg/ml his-tagged angiocidin or his-tagged GST. Both angiocidin and GST were expressed in bacteria transformed with the pTrcHisA expression vector and purified on nickel affinity chromatography under non-denaturing conditions. Viability was measured by the ALAMAR BLUE™ assay.
This study examined the effect of anti-angiocidin antibody on angiocidin-mediated inhibition of BAEC viability. BAEC were cultured overnight in serum-free media containing either 5 μg/ml angiocidin, 5 μg/ml angiocidin plus 100 μg/ml control IgG, or 5 μg/ml angiocidin plus 100 μg/ml anti-angiocidin IgG. Viability was measured using the ALAMAR BLUE™ assay, described above.
The endothelial cells (BAEC) were incubated overnight 37 μg/ml of the angiocidin, fragments, and GST. Viability was measured using the ALAMAR BLUE™ assay.
Background: Resazurin is reduced to fluorescent resorufin, in cell work by metabolically active cells.

For another data set, the system named is Lewis lung carcinoma. The data set can be described thus: Growth of Lewis lung carcinoma flank tumors. Format: in vivo, mice. The following applies: 50 μg IV on days 1, 3, 5. An excerpt:
Ten animals were subcutaneously injected in the flank with […] Lewis lung carcinoma cells. Evaluation of flank tumors is a well recognized model for angiogenesis, because flank tumors are highly dependent on angiogenesis. O'Reilly, M. S., Angiostatin: A Novel Angiogenesis Inhibitor that Mediates the Suppression of Metastasis by a Lewis Lung Carcinoma, Cell 79: 315-28 (1994). After 9 days when a palpable tumor developed, mice were divided into two groups of 5 animals per group. One group of 5 mice were treated with an IV injection of 50 μg of angiocidin in Hepes buffered saline. The control group was treated with Hepes buffered saline. Mice were treated on days 1, 3, and 5 after the groups were divided, and sacrificed on day 7.
The tumors were embedded in paraffin and cut into 5 micron sections. The sections were stained with hemotoxylin and eosin. Hemotoxylin stains DNA blue, and eosin stains protein pink. FIG. 36 illustrates the difference between control (panels A and C) and angiocidin (panels B and D) treated cells. Panels A and B are at a magnification of 400×under a light microscope and panels C and D are at a magnification of 200×under a light microscope.

The test system of data set [2] is MDA-MB-435 Breast Carcinoma Cells. Put plainly: Cell adhesion to immobilized recombinant receptor. Format: cell-based. As for the experimental part:
For the adhesion assay, in a 96 well plate, duplicate wells were covered with either TSP-1 (40 μg/ml), fibronectin (40 μg/ml), or and 1% bovine serum albumin (BSA). The wells were dried out overnight and then blocked with BSA. 100 μl of a suspension containing 2×10^5 cells were plated in the protein covered wells and incubated at 37^□ C. for 20 minutes to 1 hour. The non-adherent cells were removed and the wells were washed with a Hepes buffer. The adherent cells were fixed with 2.5% glutaraldehyde for 10 minutes and stained with 0.2% Giemsa. The stain was washed off and the cells were counted in a field of 1 mm square. Cells adhering to BSA were considered background while cells adhering to fibronectin were the positive control.
The method of Example 12 was followed except the whole receptor protein was immobilized on the plates, and cells transfected with either TSP-1 cDNA or a vector control were applied to the plates. The cells, which naturally express a low level of TSP-1, were transfected to over express the protein. […] Fibronectin and BSA were used as positive and negative controls, respectively, for cell adhesion. This evidence bolsters the theory that the receptor of the present invention binds to thrombospondin.
This specific interaction was confirmed by adding anti-TSP-1 antibodies, Anti-Cys-Ser-Val-Cys-Thr-Gly (SEQ ID NO: 1), and control IgG to the system.

Data set [3] concerns Bovine Smooth Muscle Cells (BSM). Put plainly: ALAMAR BLUE cell viability assay. Format: cell-based. Particulars: 0 to 37 μg/ml, 24 hours. As for the experimental part:
as §1, with “This causes the redox indicator to change from its oxidized, non-fluorescent, blue form to its reduced, fluorescent, red form.” left out
BAEC and BSM cells were treated with increasing concentrations of angiocidin (0, 0.625, 1.25, 2.5, 5, 15, 26 and 37 μg/ml) for 24 hours. Cell viability was measured using the ALAMAR BLUE Tm assay. […]

For data set [4], the system named is Lung Human Microvascular Endothelial Cells (HMVEC-L). Put plainly: ALAMAR BLUE cell viability assay. Particulars: Example 26. Format: cell-based.
Data set [5] has as its system Bovine aortic endothelial cells (BAEC). Put plainly: Morphology of BAEC monolayer cultures. It counts as cell-based. The following applies: 0.37, 3.7, 37 μg/ml, 24 hours, serum-free medium with 1% BSA. As for the experimental part: In this experiment, BAEC cells in monolayer cultures were plated for 24 hours in serum-free medium containing 1% BSA in the presence of increasing concentrations of angiocidin (control=none, 0.37 μg/ml, 3.7 μg/ml, 37 μg/ml). Hoffman interference microscopy (100×) was used to photograph the cells.

Data set [6] deals with Human Aortic Endothelial Cells (HAEC). Put plainly: ALAMAR BLUE cell viability assay. Particulars: Example 26. It counts as cell-based.

On to “angiocidin: Cys-Ser-Val-Thr-Cys-Gly (SEQ ID NO: 1)-specific thrombospondin (TSP-1) receptor protein; recombinant form of SEQ ID NO: 2 used in the Examples”, for which the cell viability entry is given as “dose dependent inhibition of BAEC cell viability; also recorded: decreases viability of BAEC cells” in data set [1] (0 to 37 μg/ml, 24 hours); “unaffected” in data set [3]; “negative effect on the viability of both cell lines” in data set [4]; “negative effect on the viability of both cell lines” in data set [6]. In data set [1] (37 μg/ml, 24 hours), the “decrease of cell viability” value is on record as 70-80%. In data set [1] (Example 27, FIG. 34), the “cell viability, angiocidin and fragments” value is recorded as “inhibited cell viability”. In data set [1] (overnight, serum-free media, purified under non-denaturing conditions), the “cell viability, his-tagged proteins” value was “dose-dependent effect on cell viability”. Besides, in the data set with Lewis lung carcinoma, the “tumor histology (hemotoxylin and eosin)” value is “significant necrosis and cell death”. Also, in the data set with Lewis lung carcinoma (7 day treatment period), the “tumor growth (relative tumor volumes)” value was “grew only slightly and at a linear rate”. Moreover, the flank tumor size result with Lewis lung carcinoma (sacrificed day 7) was “much smaller than the control mice”. Besides, the “inhibition of cell adhesion to receptor bound to the plate by unbound receptor” value in data set [2] (nontransfected, naturally TSP-1 expressing cells, FIG. 17) was “reduced the adhesion of the cells to the plate”. Moreover, the “adhesion of TSP-1 cDNA transfected cells to plates with receptor protein relative to control cell line” value in data set [2] (p<0.001) is 2.5 times. For the same substance, the cell morphology result in data set [5] is “elongated, detached from the plate, aggregated, and died”.
